Experimental data: patent publication US20250059166A1, “PIPERIDINYLPYRIDINYLCARBONITRILE DERIVATIVES AS INHIBITORS OF GLUTAMINYL-PEPTIDE CYCLOTRANSFERASE AND GLUTAMINYL-PEPTIDE CYCLOTRANSFERASE LIKE PROTEIN” (Boehringer Ingelheim International GmbH, priority 2023, published 2025)

Key:
[1] = Assay C: permeability in CACO-2 cells; assay type: in vitro ADME; conditions: human, pH 7.2, compounds of the invention; for efflux ratio at 2 h: Caco-2, permeability B-A / permeability A-B; for Papp A→B at 2 h: Caco-2, apical to basolateral
Protocol: Caco-2 cells (1-2×10^5 cells/1 cm^2 area) are seeded on filter inserts (Costar transwell polycarbonate or PET filters, 0.4 μm pore size) and cultured (DMEM) for 10 to 25 days. Compounds are dissolved in appropriate solvent (like DMSO, 1-20 mM stock solutions). […] The transport solution (TL) is applied to the apical or basolateral donor side for measuring A-B or B-A permeability (3 filter replicates), respectively. Samples are collected at the start and end of experiment from the donor and at various time intervals for up to 2 hours also from the receiver side for concentration measurement by HPLC-MS/MS or scintillation counting. Sampled receiver volumes are replaced with fresh receiver solution.
Efflux ratio(ER)=permeabilityB−A/permeabilityA−B

[2] = system: SIRPα signalling induced by A549 cells; assay: Assay B: SIRPα signalling assay using A549 cells; assay type: cell-based; conditions: Homo sapiens; compounds of the invention; A549 cells 48 h, Jurkat PathHunter SIRPαV1 reporter cells 5 h; read-out: Inhibition of SIRPα signalling induced by A549 cells: IC50
Protocol: (§1) Two cell types are independently used: the Raji cell line (lymphoblast-like human cell line derived from B lymphocytes from a Burkitt's lymphoma patient in 1963) and A549 cells (adenocarcinoma human alveolar basal epithelial cells).
(§2) Test compounds were dissolved in 100% DMSO and serially diluted into a white 384-well microtiter cell culture plate (PerkinElmer #60076780 in case of Raji assay; PDL-coated plates Greiner #781945 in case of A549 assay). 5000 Raji cells (ATCC #CC86) or 5000 A549 cells (ATCC #CCL-185) in Assay Complete Cell Plating reagent 30 (DiscoverX 93-0563R30B) were added per well. The assay plate was incubated for 48 h at 37° C., 95% humidity and 5% CO2. 15000 reporter cells (Jurkat PathHunter SIRPαV1, DiscoverX #93-1135C19) were added to each well, and the plate was incubated for 5 h at 37° C., 95% humidity and 5% CO2. Bioassay reagent 1 of the PathHunter Bioassay detection kit (DiscoverX 93-0001) was added to each well of the plate using a multichannel pipette followed by a 15 min incubation at room temperature. Afterwards bioassay reagent 2 was added followed by 60 min incubation at room temperature (incubation in the dark).
(§3) The analysis of the data was performed using the luminescence signal generated by beta-galactosidase in the PathHunter reporter cell line. The luminescence measurement was done using a Pherastar Multi-Mode Reader. Dose-response curves & IC50 data were calculated with 4-parameter sigmoidal dose response formula.

[3] = system: SIRPα signalling induced by Raji cells; assay: Assay B: SIRPα signalling assay using Raji cells; assay type: cell-based; conditions: Homo sapiens; compounds of the invention; Raji cells 48 h, Jurkat PathHunter SIRPαV1 reporter cells 5 h; read-out: Inhibition of SIRPα signalling induced by Raji cells: IC50
Protocol: as §1, §2, §3

QPCTL = molecular target: T1, QPCTL (Homo sapiens, UniProt Q9NXS2); assay: Assay A: biochemical QPCTL activity assay (MALDI-TOF MS, CD47 peptide substrate); conditions: compounds of the invention; 0.5 nM enzyme, 10 μM CD47 peptide substrate; read-out: Inhibition of QPCTL: IC50
T1 construct: made in house
Protocol: (§4) QPCT or QPCTL dependent conversion of N-terminal glutamine to pyroglutamate of CD47 was monitored via MALDI-TOF MS. Test compounds were dissolved in 100% DMSO and serially diluted into clear 1,536-well microtiter plates. Enzymatic reactions were set up in assay buffer containing 20 mM Tris pH 7.5, 0.1 mM TCEP, 0.01% BSA, and 0.001% Tween20. […] The plates were incubated for 10 min in a humidified incubator at 24° C. Subsequently, 2.5 μL of CD47 peptide substrate surrogate (^19[…]^33) was added to each well (final concentration: 10 μM for QPCTL/20 μM for QPCT). The plates were mixed for 30 sec at 1,000 rpm and subsequently incubated for 40 min in a humidified incubator at 24° C. […] The plates were sealed with an adhesive foil, mixed for 30 s at 1,000 rpm and stored at room temperature until preparation of the MALDI target plates. […] QPCT or QPCTL activity was monitored by calculating the ratio between product and internal standard signals followed by normalization to high (100% activity) and low (0% activity) controls. Determination of compound potencies was obtained by fitting the dose-response data to a four-parameter logistical equation.

QPCT = molecular target: T2, QPCT (Homo sapiens, UniProt Q16769); assay: Assay A: biochemical QPCT activity assay (MALDI-TOF MS, CD47 peptide substrate); conditions: compounds of the invention; 0.5 nM enzyme, 20 μM CD47 peptide substrate; read-out: Inhibition of QPCT: IC50
T2 construct: purchased Origine (so in the source)
Protocol: as §4

T2 sequence (Q16769 29-361): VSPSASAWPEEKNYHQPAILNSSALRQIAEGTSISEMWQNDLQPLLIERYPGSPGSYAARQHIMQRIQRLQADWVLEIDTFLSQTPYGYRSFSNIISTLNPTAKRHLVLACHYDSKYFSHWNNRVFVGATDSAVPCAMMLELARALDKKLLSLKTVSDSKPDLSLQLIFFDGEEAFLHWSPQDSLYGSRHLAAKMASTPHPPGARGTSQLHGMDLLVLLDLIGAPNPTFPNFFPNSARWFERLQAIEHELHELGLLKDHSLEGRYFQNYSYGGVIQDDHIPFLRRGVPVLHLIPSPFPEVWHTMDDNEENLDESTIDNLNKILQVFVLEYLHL
T1 sequence (Q9NXS2 whole entry): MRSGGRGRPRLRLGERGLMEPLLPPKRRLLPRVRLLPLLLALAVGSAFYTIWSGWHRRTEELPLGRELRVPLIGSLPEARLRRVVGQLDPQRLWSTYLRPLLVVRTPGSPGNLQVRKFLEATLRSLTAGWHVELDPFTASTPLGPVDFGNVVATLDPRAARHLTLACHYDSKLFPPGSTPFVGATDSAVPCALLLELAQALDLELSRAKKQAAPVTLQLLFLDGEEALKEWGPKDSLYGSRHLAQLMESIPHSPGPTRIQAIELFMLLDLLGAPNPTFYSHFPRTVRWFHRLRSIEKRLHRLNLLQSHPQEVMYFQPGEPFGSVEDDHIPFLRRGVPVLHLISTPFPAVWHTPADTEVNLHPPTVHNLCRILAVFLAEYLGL

| Compound | efflux ratio at 2 h [1] | Papp A→B at 2 h [1] [×10⁻⁶ cm/s] | IC50 [2] [nM] | IC50 [3] [nM] | IC50 (QPCTL) [nM] | IC50 (QPCT) [nM] |
| --- | --- | --- | --- | --- | --- | --- |
| Cn1cnnc1C1(F)CCN(c2c(-c3ccc(F)nc3)ncc(C(F)(F)F)c2C#N)CC1 [Example 40] | 2.8 | 18 | 115 | 258 | 4 | 5 |
| Cn1cnnc1C1(F)CCN(c2c(C#N)cc(C(F)(F)F)nc2-c2cnc3nc(C(F)(F)F)nn3c2)CC1 [Example 12] | 6.9 | 4.9 | 599 | 860 | 24 | 29 |
| Cn1cnnc1C1(F)CCN(c2c(C#N)cc(C(F)(F)F)nc2-c2cnc3nn(C(C)(C)C)c(C(F)(F)F)c3c2)CC1 [Example 4] | 0.6 | 99.5 | 46 | 31 | 9 | 5 |
| CC(C)n1nc2ncc(-c3nc(C(F)(F)F)cc(C#N)c3N3CCC(F)(c4nncn4C)CC3)cc2c1F [Example 7] | 11.9 | 5.8 | 39 | 26 | 2 | 2 |
| Cn1cnnc1C1(F)CCN(c2c(C#N)cc(C(F)F)nc2-c2ccc(F)nc2)CC1 [Example 35] | 3.6 | 17 | 43 | 154 | 3 | 10 |
| Cn1cnnc1C1(F)CCN(c2c(C#N)cc(C(F)(F)F)nc2-c2cnc3nc(C(C)(C)C)nn3c2)CC1 [Example 11] | 14.9 | 4.3 | 29 | 47 | 3 | 3 |
| Cn1cnnc1C1(F)CCN(c2c(C#N)cc(C(F)(F)F)nc2-c2cnc3nn(C(C)(C)C)nc3c2)CC1 [Example 8] | 2.6 | 31 | 29 | 67 | 5 | 4 |
| Cn1cnnc1C1(F)CCN(c2c(C#N)ccnc2-c2cnc3nn(C(C)(C)C)c(C(F)(F)F)c3c2)CC1 [Example 15] | 1.6 | 35 | 66 | 69 | 4 | 3 |
| Cn1cnnc1C1(F)CCN(c2c(C#N)cc(C(C)(F)F)nc2-c2ccc(F)nc2)CC1 [Example 34] | 1.7 | 23 | 20 | 37 | 2 | 6 |
| Cc1cc(F)ncc1-c1nccc(C#N)c1N1CCC(F)(c2nncn2C)CC1 [Example 21] | 2.4 | 18 | 115 | 187 | 1 | 6 |
| Cn1cnnc1C1(F)CCN(c2c(C#N)cc(Cl)nc2-c2ccc(F)nc2)CC1 [Example 37] | 2.2 | 23 | 35 | 95 | 2 | 6 |
| Cc1cncc(-c2nccc(C#N)c2N2CCC(F)(c3nncn3C)CC2)c1 [Example 20] | 4.5 | 14 | 615 | 1370 | 13 | 35 |
| Cn1cnnc1C1(F)CCN(c2c(-c3cnc4nn(C(C)(C)C)cc4c3)ncc(Cl)c2C#N)CC1 [Example 38] | 10.9 | 6.6 | 6 | 21 | 1 | < 1 |
| Cn1cnnc1C1(F)CCN(c2c(C#N)cc(C(F)(F)F)nc2-c2cnc3nn(C(C)(C)C(F)(F)F)cc3c2)CC1 [Example 6] | 10.1 | 7.2 | 50 | 26 | 2 | 2 |
| Cn1cnnc1C1(F)CCN(c2c(C#N)ccnc2-c2cnc(F)cc2Cl)CC1 [Example 22] | 1.6 | 34 | 218 | 435 | 5 | 15 |
| Cc1cc(C#N)c(N2CCC(F)(c3nncn3C)CC2)c(-c2cnc3nn(C(C)(C)C)c(Cl)c3c2)n1 [Example 26] | 4.2 | 20 | 13 | 6 | < 1 | < 1 |
| Cn1cnnc1C1(F)CCN(c2c(C#N)cc(C(C)(F)F)nc2-c2cnc3nn(C(C)(C)C)c(F)c3c2)CC1 [Example 33] | 2.2 | 31 | 26 | 13 | 1 | 1 |
| Cn1cnnc1C1(F)CCN(c2c(C#N)cc(C3CC3)nc2-c2cnc3nn(C(C)(C)C)cc3c2)CC1 [Example 28] | 3.8 | 19 | 12 | 7 | 1 | < 1 |
